Measured values reported in patent US20180168208A1 (priority 2014, published 2018).
Read-outs that look alike come from different tables or passages of the source.

Target: T1R1/T1R3 receptor (Felis catus, UniProt E3UMS2)
Assay: cell-based
Assay type: cell-based
Source text: HEK293 cells that stably express T1R3 and inducibly express T1R1 were exposed to transmembrane compounds alone or in combination with one or more amino acids and/or one or more nucleotides to activate the umami receptor. Activation of the T1R1/T1R3 receptor was detected by a change in intracellular calcium levels using a calcium sensitive fluorescent dye. Cells that express T1R3 but not T1R1 were used as a control. A FLIPR® Tetra or a FlexStation® 3 was used for data capture.
In each experiment, serial dilutions of up to 10 mM of the transmembrane compound were added to the T1R1/T1R3-expressing cells.

[1] = + Alanine, Table 17, read-out: EC50 + Alanine
[2] = +Alanine (20 mM), Table 18, read-out: EC50 +Alanine
[3] = EC50 + IMP, + IMP (0.2 mM), Table 17
[4] = EC50 +Alanine + IMP, +Alanine (20 mM) + IMP (0.2 mM), Table 18
[5] = EC50 +IMP, +IMP (0.2 mM), Table 18
[6] = compound alone in buffer, Table 17, read-out: EC50 + buffer (alone)
[7] = compound alone in buffer, Table 18, read-out: EC50 +buffer (alone)
[8] = EC50 - with IMP (0.2 mM), with 0.2 mM IMP

Row | Compound | Thres +Alanine (+ Alanine (20 nM), Table 17) [mM] | Max resp % of IMP + Alanine (+ Alanine, Table 17) | Max resp ΔF/F +Alanine (+ Alanine, Table 17) | EC50 [1] [µM] | Max resp % of ALa + IMP (+ IMP (0.2 mM), Table 17) | Thres + IMP (+ IMP (0.2 mM), Table 17) [mM] | Max resp ΔF/F +Alanine (+Alanine (20 mM), Table 18) | Thres +Alanine (+Alanine (20 mM), Table 18) [mM] | EC50 [2] [µM] | Max resp % of Ala +IMP (+IMP (0.2 mM), Table 18) | Max resp ΔF/F +IMP (+IMP (0.2 mM), Table 18) | EC50 [3] [µM] | EC50 [4] [µM] | EC50 [5] [µM] | EC50 [6] [µM] | EC50 [7] [µM] | also measured
1 | CCC(CC)NC(=O)c1ccc(C)c(C)c1 [3,4-dimethyl-N-(pentan-3-yl)benzamide] | 3 | 97.8 % of IMP | 1.2150 | > 3000 | 125.7 % of ALa | 0.525 | 1.2150 | 3 | > 3000 | 125.7 % of Ala | 1.5475 | 2100 | 1700 | 2100 | > 3000 | > 3000 | 
2 | O=C(NCCc1ccccc1)C(=O)NCc1cccnc1 [N1-phenethyl-N2-(pyridin-3-ylmethyl)oxalamide] | 1 | 30.2 % of IMP | 0.3750 | > 1000 | 61.9 % of ALa | 0.1 | 0.3750 | 1 | > 1000 | 61.9 % of Ala | 0.7625 | > 300 | 200 | > 300 | > 1000 | > 1000 | 
3 | CCC(CC)NC(=O)c1ccc2c(c1)OCCO2 [N-(pentan-3-yl)-2,3-dihydrobenzo[b][1,4]dioxine-6-carboxamide] | 0.3 | 25.2 % of IMP | 0.3125 | > 1000 | 70.9 % of ALa | 0.075 | 0.3125 | 0.3 | > 1000 | 70.9 % of Ala | 0.8725 | 300 | 200 | 300 | > 1000 | > 1000 | 
4 | COc1cc(C(=O)NC(C(N)=O)c2ccccc2)cc(Cl)c1OC (stereo not shown) [N-(2-amino-2-oxo-1-phenylethyl)-3-chloro-4,5-dimethoxybenzamide] |  |  |  |  | 49.4 % of ALa | 0.17 |  |  |  | 49.4 % of Ala | 0.415 | 680 | 750 | 680 |  |  | activation of T1R1/T1R3 by the compound alone (in words): failed to activate T1R1/T1R3 alone
5 | O=C(CN1C(=O)C(=O)N(Cc2ccccc2)C1=O)c1ccccc1 [1-benzyl-3-(2-oxo-2-phenylethyl)imidazolidine-2,4,5-trione] | 1 | 127.6 % of IMP | 1.3 |  | 135.7 % of ALa | 0.08 | 1.3 | 1 |  | 135.7 % of Ala | 1.140 |  |  |  |  |  | 
6 | N[C@@H](Cc1ccccc1)C(=O)O [Phenylalanine, phenylalanine] |  |  |  |  |  |  |  |  |  |  |  |  |  |  |  |  | EC50 [8]: 3400 ± 700 µM
7 | CSc1ccc(-c2nnn(Cc3ccccn3)n2)cc1 [2-((5-(4-(methylthio)phenyl)-2H-tetrazol-2-yl)methyl)pyridine] |  |  |  |  | 80.7 % of ALa | 0.1575 |  |  |  | 80.7 % of Ala | 0.678 | 630 | 270 | 630 |  |  | 
8 | CCC(CC)NC(=O)/C=C/c1ccc(OC)cc1 [(E)-3-(4-methoxyphenyl)-N-(pentan-3-yl)acrylamide] | 0.148 | 64.1 % of IMP | 0.7 |  | 171.7 % of ALa | 0.0375 | 0.7 | 0.148 | 590 | 171.7 % of Ala | 1.443 | 150 | 80 | 150 | 450 | 450 | EC50: 80 ± 10 µM; EC50 (EC50 + Alanine + IMP, + Alanine (20 mM) + IMP (0.2 mM), Table 17): 80 µM; EC50 [8]: 150 ± 20 µM; EC50 (alone in buffer, read-out: EC50 - alone): 450 ± 10 µM; EC50 (read-out: EC50 + Alanine): 590 µM
9 | CC1CCCC(NC(=O)c2ccc3c(c2)OCO3)C1C (stereo not shown) [N-(2,3-dimethylcyclohexyl) benzo[d][1,3]dioxole-5-carboxamide] | 3 | 18.1 % of IMP | 0.225 |  | 95.4 % of ALa | 0.275 | 0.225 | 3 | > 3000 | 95.4 % of Ala | 1.175 | 1100 | 600 | 1100 | 2000 | 2000 | EC50 (read-out: EC50 + Alanine): > 3000 µM
10 | CCCC(CCC)C(=O)Nc1ccc2c(c1)OCO2 [N-(benzo[d][1,3]dioxol-5-yl)-2-propylpentanamide] |  |  |  |  | 108.0 % of ALa | 0.0675 |  |  |  | 108.0 % of Ala | 0.908 | 270 | 90 | 270 | 350 | 350 | activation of T1R1/T1R3 by the compound alone (in words): agonist of T1R1/T1R3 alone
11 | CCC(CC)NC(=O)c1ccc(OC)c(OC)c1 [3,4-dimethoxy-N-(pentan-3-yl)benzamide] | 0.3 | 43.9 % of IMP | 0.545 | > 10000 | 81.0 % of ALa | 0.5 | 0.545 | 0.3 | > 10000 | 81.0 % of Ala | 0.9975 | 2000 | > 3000 | 2000 | > 10000 | > 10000 | 
12 | CCCC(C)NC(=O)c1ccc(OC)c(C)c1 (stereo not shown) [4-methoxy-3-methyl-N-(pentan-2-yl)benzamide] | 0.050 | 126.0 % of IMP | 1.5650 |  | 128.9 % of ALa | 0.025 | 1.5650 | 0.050 | 200 | 128.9 % of Ala | 1.5875 | 100 | 30 | 100 | 400 | 400 | EC50 (read-out: EC50 + Alanine): 200 µM
13 | COC(=O)C(NC(=O)/C=C/c1cccs1)C(C)C (stereo not shown) [(E)-methyl 3-methyl-2-(3-(thiophen-2-yl)acrylamido)butanoate] | 10 | 9.5 % of IMP | 0.1175 |  | 59.9 % of ALa | 1 | 0.1175 | 10 |  | 59.9 % of Ala | 0.7375 | > 10000 | > 10000 | > 10000 |  |  | 
14 | COc1ccc(C(=O)NC(C)c2ccccc2)cc1C (stereo not shown) [4-methoxy-3-methyl-N-(1-phenylethyl)benzamide] | 3 | 41.0 % of IMP | 0.51 | > 3000 | 95.6 % of ALa | 0.35 | 0.51 | 3 | > 3000 | 95.6 % of Ala | 1.1775 | 1400 | 1200 | 1400 | > 3000 | > 3000 | 
15 | CCC(CC)NC(=O)c1ccc(Br)o1 [5-bromo-N-(pentan-3-yl)furan-2-carboxamide] | 1 | 126.8 % of IMP | 1.575 | > 3000 | 149.6 % of ALa | 0.3 | 1.575 | 1 | > 3000 | 149.6 % of Ala | 1.8425 | > 1000 | > 1000 | > 1000 | > 3000 | > 3000 | 
16 | O=C(Nc1ccccc1Br)N[C@@H]1c2ccccc2C[C@@H]1O (stereo in doubt) [1-(2-bromophenyl)-3-((1R,2S)-2-hydroxy-2,3-dihydro-1H-inden-1-yl)urea] | 3 | 33.0 % of IMP | 0.3 | > 3000 | 44.9 % of ALa | 3 | 0.3 | 3 | > 3000 | 44.9 % of Ala | 0.378 | > 3000 | > 3000 | > 3000 | > 3000 | > 3000 | 
